16 molecules from patent US6498252B1, “Pyrimidine-2,4,6-trione derivatives, processes for their production and pharmaceutical agents containing these compounds” (priority 1999, dated 2002) can be followed below.

Structures are written as SMILES.

The target in one test is T1, MMP-8, catalytic domain (Homo sapiens, UniProt P22894).
T1 construct: Enzyme: 8 nM catalytic domain (Met80-Gly242) of human neutrophil collagenase (MMP-8); made in house
T1 sequence (P22894 100-262 limits assumed): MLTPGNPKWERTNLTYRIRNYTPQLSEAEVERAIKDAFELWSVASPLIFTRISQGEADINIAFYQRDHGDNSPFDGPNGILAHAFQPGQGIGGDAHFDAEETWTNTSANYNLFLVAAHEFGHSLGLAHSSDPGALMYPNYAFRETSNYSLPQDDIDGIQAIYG
The experiment in a line: Inhibition of MMP-8 (HNC) catalytic domain, fluorogenic substrate cleavage.
Conditions: not given
It is filed as biochemical. Here is the method:
In order to determine the inhibition of MMPs, for example HNC (MMP-8), the catalytic domain (isolation and purification see for example Schnierer, S., Kleine, T., Gote, T., Hillemann, A., Knäuper, V., Tschesche, H.,Biochem. Biophys. Res. Commun. (1993) 191, 319-326) were incubated with inhibitors having various concentrations. Subsequently, the initial reaction rate in the conversion of a standard substrate was measured in a manner analogous to Grams F. et al., FEBS 335 (1993) 76-80).
The results awee evaluated by plotting the reciprocal reaction rate against the concentration of the inhibitor. The inhibition constant (Ki) is obtained as the negative section of the abscissis by the graphical method according to Dixon, M., Biochem. J. (1953) 55, 170-202.
The synthetic collagenase substrate was a heptapeptide which is coupled, at the C terminus, with DNP (dinitrophenol). Said DNP residue quenched by steric hindrance the fluorescence of the adjacent tryptophane of the heptapeptide. After cleavage of a tripeptide which includes the DNP group, the tryptophane fluorescence increased. The proteolytic cleavage of the substrate therefore was measured by the fluorescence value.
The assay was performed at 25° C. in a freshly prepared 50 mM Tris buffer (pH 8.0) treated with dithiozone to remove traces of heavy metals. 4 mM CaCl2 was added and the buffer saturated with argon. Stock solutions of adamalysin II were prepared by centrifugation of the protein from an ammonium sulfate suspension and subsequent dissolution in the assay buffer. Stock solutions of collagenase were diluted with the assay buffer. Enzyme concentrations were determined by uv measurements (ε280=2.8 10^4 M^−1 cm^−1, ε288: 2.2 10^4 M^−. cm^−1) and the stock solutions were stored in the cold. This solution was diluted 1:100 to obtain the final 16 nM assay concentration. The fluorogenic substrate DNP-Pro-Leu-Gly-Leu-Trp-Ala-D-Arg-NH2 with a Km of 52 μM was used at a concentration of 21.4 μM; for the Ki determination a 12.8 μM concentration has also been used. Substrate fluorescence was measured at an excitation and emission wavelength of λ=320 and 420 nm, respectively, on a spectrofluorimeter (Perkin Elmer, Model 650-40) equipped with a thermostated cell holder. Substrate hydrolysis was monitored for 10 minutes. immediately after adding the enzyme. All reactions were performed at least in triplicate. The Ki values-of the inhibitors were calculated from the intersection point of the straight lines obtained by the plots of vo/vi vs. [concentration of inhibitor], whereas IC50 values were calculated from plots of vi/vo [concentration of inhibitor] by non-linear regression with simple robust weighting.
50 mM Tris/HCI pH 7.6 (Tris=Tris-(hydroxymethyl)-aminomethan)
100 mM NaCl/10 mM CaCl2/5% MeOH (ff necessary)
Enzyme: 8 nM catalytic domain (Met80-Gly242) of human neutrophil collagenase (MMP-8)
10 microM DNP-Pro-Leu-Gly-Leu-Trp-Ala-D-Arg-NH2
A solution of the enzyme and inhibitor in assay buffer (25° C.) was prepared. The reaction was started by giving the substrate into the solution. The cleavage of the fluorogenic substrate was followed by fluorescence spectroscopy with an excitation and emission wavelength of 280 and 350 nm, respectively. The IC50 value was calculated as the inhibitor concentration, which is necessary to decrease the velocity of the reaction to the half in comparison to the reaction without inhibitor.
118 cited in the patent application EP0869947
In the case of `NS(=O)(=O)c1ccc(N2CCN(C3(c4ccc(Oc5ccc(Cl)cc5)cc4)C(=O)NC(=O)NC3=O)CC2)cc1` [Example 5 - no. 9, 4-(4-5-[4-(4-Chloro-phenoxy)-phenyl]-2,4,6-trioxo-hexahydro-pyrimidin-5-yl-piperazin-1-yl)-benzenesulfonamide], inhibition was half-maximal at 12 nM (IC50).
With `O=C1NC(=O)C(c2ccc(Oc3ccc(Cl)cc3)cc2)(N2CCN(c3ccc(S(=O)(=O)N(CCO)CCO)cc3)CC2)C(=O)N1` [Example 5 - no. 10, 4-(4-5[-4-(4-Chloro-phenoxy)-phenyl]-2,4,6-trioxo-hexahydro-pyrimidin-5-yl-piperazin-1-yl)-N,N-bis-(2-hydroxy-ethyl)-benzenesulfonamide], the IC50 came to 9 nM.
The same measure, in the same setting: with `O=C1NC(=O)C(c2ccc(Oc3ccccc3)cc2)(N2CCN(c3ccc(S(=O)(=O)NCC(O)CO)cc3)CC2)C(=O)N1` (stereo not shown) [Example 5 - no. 11, N-(2,3-Dihydroxy-propyl)-4-4-[2,4,6-trioxo-5-(4-phenoxy-phenyl)-hexahydro-pyrimidin-5-yl]-piperazin-1-yl-benzenesulfonamide] the figure was 4.5 nM; with `O=C1NC(=O)C(c2ccc(Oc3ccccc3)cc2)(N2CCN(c3ccc(S(=O)(=O)NC(CO)CO)cc3)CC2)C(=O)N1` [Example 5 - no. 12, N-(2-Hydroxy-1-hydroxymethyl-ethyl)-4-4-[2,4,6-trioxo-5-(4-phenoxy-phenyl)-hexahydro-pyrimidin-5-yl]-piperazin-1-yl-benzenesulfonamide], 5.5 nM.
Turning to `O=C1NC(=O)C(c2ccc(Oc3ccccc3)cc2)(N2CCN(c3ccc(S(=O)(=O)NCCOCCOCCO)cc3)CC2)C(=O)N1` [Example 5 - no. 13, N-2-[2-(2-Hydroxy-ethoxy)-ethoxy]-ethyl-4-4-[2,4,6-trioxo-5-(4-phenoxy-phenyl)-hexahydro-pyrimidin-5-yl]-piperazin-1-yl-benzenesulfonamide], half-maximal inhibition (IC50) was put at 6 nM.
The same measure, in the same setting: with `O=C1NC(=O)C(c2ccc(Oc3ccc(Cl)cc3)cc2)(N2CCN(c3ccc(S(=O)(=O)NC(CO)(CO)CO)cc3)CC2)C(=O)N1` [Example 5 - no. 19, 4-(4-5-[4-(4-Chloro-phenoxy)-phenyl]-2,4,6-trioxo-hexahydro-pyrimidin-5-yl-piperazin-1-yl)-N-(2-hydroxy-1,1-bis-hydroxymethyl-ethyl)-benzenesulfonamide] the figure was 9 nM; with `O=C1NC(=O)C(c2ccc(Oc3ccccc3)cc2)(N2CCN(c3ccc(S(=O)(=O)NCC4COC(=O)O4)cc3)CC2)C(=O)N1` (stereo not shown) [Example 6, N-(2-Oxo-[1,3]dioxolan-4-ylmethyl)-4-4-[2,4,6-trioxo-5-(4-phenoxy-phenyl)-hexahydro-pyrimidin-5-yl]-piperazin-1-yl-benzenesulfonamide], 9 nM.

The same test, now with this note: catalytic domain of human neutrophil collagenase (MMP-8); substrate DNP-Pro-Leu-Gly-Leu-Trp-Ala-D-Arg-NH2; 25° C.; read-out: IC50 Values of MMP-Inhibitor (vs. MMP-8, catalytic domain).
In the case of `O=C1NC(=O)C(c2ccc(Oc3ccc(Cl)cc3)cc2)(N2CCN(c3ncccn3)CC2)C(=O)N1` [Example 1, 5-(4-(4-Chloro-phenoxy)-phenyl)-5-(4-pyrimidine-2-yl-piperazine)-pyrimidine-2,4,6-trione], the half-inhibitory concentration (IC50) was determined as 10 nM.
For `O=C1NC(=O)C(c2ccc(Oc3ccc(Cl)cc3)cc2)(N2CCN(c3cnccn3)CC2)C(=O)N1` [Example 2], the IC50 was 4 nM.
Take `O=C1NC(=O)C(c2ccc(Oc3ccc(Cl)c(Cl)c3)cc2)(N2CCN(c3ncccn3)CC2)C(=O)N1` [Example 3 - no. 1, 5-[4-(3,4-Dichloro-phenoxy)-phenyl]-5-(4-pyrimidin-2-yl-piperazin-1-yl)-pyrimidine-2,4,6-trione]: the IC50 was determined as 4 nM.
Consider `O=C1NC(=O)C(c2ccc(Oc3ccc(Cl)c(Cl)c3)cc2)(N2CCN(c3cnccn3)CC2)C(=O)N1` [Example 3 - no. 2, 5-[4-(3,4-Dichloro-phenoxy)-phenyl]-5-(2,3,5,6-tetrahydro-[1,2′]bipyrazinyl-4-yl)-pyrimidine-2,4,6-trione], for which the 50% inhibitory concentration (IC50) was determined as 2 nM.
With `O=C1NC(=O)C(c2ccc(Oc3ccc(Br)cc3)cc2)(N2CCN(c3ncccn3)CC2)C(=O)N1` [Example 3 - no. 15, 5-[4-(4-Bromo-phenoxy)-phenyl]-5-(4-pyrimidin-2-yl-piperazin-1-yl)-pyrimidine-2,4,6-trione], the concentration for half-maximal inhibition (IC50) is 4 nM.
For the molecule `O=C1NC(=O)C(c2ccc(Oc3ccc(Cl)cc3)cc2)(N2CCN(c3ccc(S(=O)(=O)NCCO)cc3)CC2)C(=O)N1` [Example 4, 4-(4-5-[4-(4-Chloro-phenoxy)-phenyl]-2,4,6-trioxo-hexahydro-pyrimidin-5-yl-piperazin-1-yl)-N-(2-hydroxy-ethyl)-benzenesulfonamide], the concentration for half-maximal inhibition (IC50) is 10 nM.
The same measure, in the same setting: with `NS(=O)(=O)c1ccc(N2CCN(C3(c4ccc(Oc5ccc(Br)cc5)cc4)C(=O)NC(=O)NC3=O)CC2)cc1` [Example 5 - no. 6, 4-(4-5-[4-(4-Bromo-phenoxy)-phenyl]-2,4,6-trioxo-hexahydro-pyrimidin-5-yl-piperazin-1-yl)-benzenesulfonamide] the figure was 2.8 nM; with `CN(C)CCNS(=O)(=O)c1ccc(N2CCN(C3(c4ccc(Oc5ccc(Br)cc5)cc4)C(=O)NC(=O)NC3=O)CC2)cc1` [Example 5 - no. 7, 4-(4-5-[4-(4-Bromo-phenoxy)-phenyl]-2,4,6-trioxo-hexahydro-pyrimidin-5-yl-piperazin-1-yl)-N-(2-dimethylamino-ethyl)-benzenesulfonamide], 13 nM; with `O=C1NC(=O)C(c2ccc(Oc3ccccc3)cc2)(N2CCN(c3ccc(S(=O)(=O)NC(CO)(CO)CO)cc3)CC2)C(=O)N1` [Example 5 - no. 18, N-(2-Hydroxy-1,1-bis-hydroxymethyl-ethyl)-4,4-[2,4,6-trioxo-5-(4-phenoxy-phenyl)-hexahydro-pyrimidin-5-yl]-piperazin-1-yl-benzenesulfonamide], 13 nM.

As usually defined, the IC50 is the concentration that inhibits the measured activity by half.
